The experiment deals with V1 receptor (Rattus norvegicus, UniProt P30560). The experiment is described as follows: biochemical. In kind it is binding.

SMILES strings stand for the structures. Counter-ions that a name gives are not always drawn. Like-named read-outs stand apart in the source and are kept apart here.

Sequence of V1 receptor (P30560 whole entry): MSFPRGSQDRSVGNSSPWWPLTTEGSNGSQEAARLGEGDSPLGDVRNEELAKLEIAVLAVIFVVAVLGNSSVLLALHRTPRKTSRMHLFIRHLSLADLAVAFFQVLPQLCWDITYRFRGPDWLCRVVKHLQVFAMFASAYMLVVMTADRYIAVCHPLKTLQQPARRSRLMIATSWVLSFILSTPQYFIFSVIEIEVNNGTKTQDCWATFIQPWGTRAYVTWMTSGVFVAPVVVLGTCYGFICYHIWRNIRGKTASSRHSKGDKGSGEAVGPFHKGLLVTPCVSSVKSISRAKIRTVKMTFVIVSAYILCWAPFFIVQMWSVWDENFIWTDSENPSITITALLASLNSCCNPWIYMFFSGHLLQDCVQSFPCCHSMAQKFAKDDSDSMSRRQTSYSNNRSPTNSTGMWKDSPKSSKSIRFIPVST

Turning to `NC(=O)OCCCCCOc1ccc(C(=O)N2CCC(N3C(=O)CCc4ccccc43)CC2)cc1` [Example 129, 1-{1-[4-(5-Carbamoyloxypentyloxy)benzoyl]-4-piperidinyl}-3,4-dihydrocarbostyril], half-maximal inhibition (IC50) required 0.18 µM. Still for that read-out and setting: the figure for `CC(=O)OCCCCCCOc1ccc(C(=O)N2CCC(N3C(=O)CCc4ccccc43)CC2)cc1` [Example 130, 1-{1-[4-(6-Acetoxyhexyloxy)benzoyl]-4-piperidinyl}-3,4-dihydrocarbostyril] is 0.39 µM; for `CN(C)CC(O)CCCCOc1ccc(C(=O)N2CCC(N3C(=O)CCc4ccccc43)CC2)cc1` (stereo not shown) [Example 131, 1-{1-[4-(6-Dimethylamino-5-hydroxyhexyloxy)benzoyl]-4-piperidinyl}-3,4-dihydrocarbostyril] it is 0.066 µM; for `O=C(c1ccc(OCCCN2CCNCC2)cc1)N1CCC(N2C(=O)CCc3ccccc32)CC1` [Example 132, 1-[1-{4-[3-(1-piperazinyl)propoxy]benzoyl}-4-piperidinyl]-3,4-dihyrocarbostyril.dihydrochloride.trihydrate] it is 0.16 µM.

With `O=C(c1ccc(OCCCN2CCN(Cc3ccccc3)CC2)cc1)N1CCC(N2C(=O)CCc3ccccc32)CC1` [Example 133, 1-[1-{4-[3-(4-Benzyl-1-piperazinyl)propoxy]benzoyl}-4-piperidinyl]-3,4-dihydrocarbostyril.dioxalate], 0.33 µM corresponded to half-maximal inhibition (IC50). Still for that read-out and setting: the figure for `CC(=O)N1CCN(CCCOc2ccc(C(=O)N3CCC(N4C(=O)CCc5ccccc54)CC3)cc2)CC1` [Example 134, 1-[1-{4-[3-(4-Acetyl-1-piperazinyl)propoxy]-benzoyl}-4-piperidinyl]-3,4-dihydrocarbostyril] is 0.16 µM; for `O=C(Nc1ccccc1)N1CCN(CCCOc2ccc(C(=O)N3CCC(N4C(=O)CCc5ccccc54)CC3)cc2)CC1` [Example 135, 1-[1-{4-[3-(4-Anilinocarbonyl-1-piperazinyl)propoxy]benzoyl}-4-piperidinyl]-3,4-dihydrocarbostyril] it is 0.2 µM; for `CN1CCN(CCCOc2ccc(C(=O)N3CCC(N4C(=O)CCc5ccccc54)CC3)cc2)CC1` [Example 136, 1-[1-{4-[3-(4-Methyl-1-piperazinyl)propoxy]benzoyl}-4-piperidinyl]-3,4-dihydrocarbostyril.dioxalate] it is 0.18 µM. Still for that read-out and setting: the figure for `O=C(CN1CCN(CCCOc2ccc(C(=O)N3CCC(N4C(=O)CCc5ccccc54)CC3)cc2)CC1)c1ccccc1` [Example 137, 1-[1-{4-[3-(4-Benzoylmethyl-1-piperazinyl)propoxy]benzoyl}-4-piperidinyl]-3,4-dihydrocarbostyril.dioxalate] is 0.12 µM; for `O=C(c1ccc(OCCCN2CCN(CC(O)c3ccccc3)CC2)cc1)N1CCC(N2C(=O)CCc3ccccc32)CC1` (stereo not shown) [Example 138, 1-{1-[4-{3-[4-(2-Phenyl-2-hydroxyethyl)-1-piperazinyl]propoxy}benzoyl]-4-piperidinyl}-3,4-dihydrocarbostyril.dioxalate] it is 0.24 µM; for `CCOc1ccc(C(=O)N2CCC(N3C(=O)CCc4c(F)cc(F)cc43)CC2)c(OC)c1` [Example 139, 5,7-Difluoro-1-[1-(2-methoxy-4-ethoxybenzoyl)-4-piperidinyl]-3,4-dihydrocarbostyril] it is 0.051 µM.

As to `CS(=O)(=O)NCCCCCCOc1ccc(C(=O)N2CCC(N3C(=O)CCc4ccccc43)CC2)cc1` [Example 142, 1-{1-[4-(6-Methylsulfonylaminohexyloxy)benzoyl]-4-piperidinyl}-3,4-dihydrocarbostyril], 0.1 µM corresponded to half-maximal inhibition (IC50). Still for that read-out and setting: the figure for `CCS(=O)(=O)CCCOc1ccc(C(=O)N2CCC(N3C(=O)CCc4ccccc43)CC2)cc1` [Example 143, 1-{1-[4-(3-Ethylsulfonylpropoxy)benzoyl]-4-piperidinyl}-3,4-dihydrocarbostyril] is 0.55 µM; for `CCN(CC)CC(O)CCCCOc1ccc(C(=O)N2CCC(N3C(=O)CCc4ccccc43)CC2)cc1` (stereo not shown) [Example 144, 1-{1-[4-(6-Diethylamino-5-hydroxyhexyloxy)benzoyl]-4-piperidinyl}-3,4-dihydrocarbostyril] it is 0.022 µM; for `O=CNCCCOc1ccc(C(=O)N2CCC(N3C(=O)CCc4ccc(F)cc43)CC2)cc1` [Example 145, 1-{1-[4-(3-Formylaminopropoxy)benzoyl]-4-piperidinyl}-7-fluoro-3,4-dihydrocarbostyril] it is 0.17 µM. Still for that read-out and setting: the figure for `NC(=O)[C@H](Cc1ccc(O)cc1)NC(=O)CCCCCOc1ccc(C(=O)N2CCC(N3C(=O)CCc4ccccc43)CC2)cc1` [Example 146, 1-{1-[4-{5-[1-(S)-Carbamoyl-2-(4-hydroxyphenyl)]ethylaminocarbonylpentyloxy}benzoyl]-4-piperidinyl}-3,4-dihydrocarbostyril] is 0.073 µM; for `CC(C)[C@H](NC(=O)CCCCCOc1ccc(C(=O)N2CCC(N3C(=O)CCc4ccccc43)CC2)cc1)C(N)=O` [Example 147, 1-{1-[4-{5-[1-(S)-Carbamoyl-2-methyl]propylaminocarbonylpentyloxy}benzoyl]-4-piperidinyl}-3,4-dihydrocarbostyril] it is 0.098 µM. Consider `CN(C)C(=O)CCCOc1ccc(C(=O)N2CCC(N3C(=O)CCc4ccccc43)CC2)cc1` [Example 148, 1-{1-[4-(3-Dimethylaminocarbonylpropoxy)benzoyl]-4-piperidinyl}-3,4-dihydrocarbostyril], for which the 50% inhibitory concentration (IC50) – broadly, the point on the concentration scale where inhibition reaches its midpoint – amounted to 0.36 µM. The same measure, in the same setting: the figure for `NC(=O)[C@H](Cc1c[nH]cn1)NC(=O)CCCCCOc1ccc(C(=O)N2CCC(N3C(=O)CCc4ccccc43)CC2)cc1` [Example 149, 1-{1-[4-{5-[1-(S)-Carbamoyl-2{4(1H)-imidazoyl}]ethylaminocarbonylpentyloxy)benzoyl]-4-piperidinyl}-3,4-dihydrocarbostyril] is 0.15 µM; for `NC(=O)CC[C@H](NC(=O)CCCCCOc1ccc(C(=O)N2CCC(N3C(=O)CCc4ccccc43)CC2)cc1)C(N)=O` [Example 150, 1-{1-[4-(5-[1-(S),3-Dicarbamoyl]propylaminocarbonylpentyloxy)benzoyl]-4-piperidinyl}-3,4-dihydrocarbostyril] it is 0.096 µM. Consider `CCOc1ccc(C(=O)N2CCC(n3c(=O)ccc4ccc(F)cc43)CC2)c(OC)c1` [Example 151, 1-[1-(2-Methoxy-4-ethoxybenzoyl)-4-piperidinyl]-7-fluorocarbostyril], for which the concentration for half-maximal inhibition (IC50) (read-out: IC50) amounted to 0.16 µM. Regarding `CCOc1ccc(C(=O)N2CCC(N3C(=O)C(C(=O)O)Cc4ccccc43)CC2)c(OC)c1` (stereo not shown) [Example 152, 1-[1-(2-Methoxy-4-ethoxybenzoyl)-4-piperidinyl]-3-carboxy-3,4-dihydrocarbostyril], half-maximal inhibition (IC50) required 1.6 µM. For the compound `CSCC[C@H](NC(=O)CCCCCOc1ccc(C(=O)N2CCC(N3C(=O)CCc4ccccc43)CC2)cc1)C(N)=O` [Example 153, 1-{1-[4-(5-[1-(S)-Carbamoyl-3-(methylthio)]propylaminocarbonylpentyloxy)benzoyl]-4-piperidinyl}-3,4-dihydrocarbostyril], the concentration for half-maximal inhibition (IC50) turned out to be 0.084 µM. Same read-out and setting: the figure for `O=C(CCCCCOc1ccc(C(=O)N2CCC(N3C(=O)CCc4ccccc43)CC2)cc1)c1nc2cnccc2[nH]1` [Example 154, 1-{1-[4-(5-(Imidazo[4,5-c]pyridine-2-yl)carbonylpentyloxy)benzoyl]-4-piperidinyl}-3,4-dihydrocarbostyril] is 0.2 µM. Same read-out and setting: the figure for `CCOc1ccc(C(=O)N2CCC(N3C(=O)CCc4ccc(F)cc43)CC2)c(O)c1` [Example 155, 1-[1-(2-Hydroxy-4-ethoxybenzoyl)-4-piperidinyl]-7-fluoro-3,4-dihydrocarbostyril] is 0.057 µM. The compound `O=C(c1ccc(OCCCCN2CCN(Cc3ccccc3)CC2)cc1)N1CCC(N2C(=O)CCc3ccccc32)CC1` [Example 156, 1-{1-[4-[(4-Benzyl-1-piperazinyl)butoxy]benzoyl]-4-piperidinyl}-3,4-dihydrocarbostyril] showed an IC50 of 0.18 µM. `O=C(c1ccc(OCCCCN2CCNCC2)cc1)N1CCC(N2C(=O)CCc3ccccc32)CC1` [Example 157, 1-{1-[4-[4-(1-Piperazinyl)butoxy]benzoyl]-4-piperidinyl}-3,4-dihydrocarbostyril.dioxalate] yielded an IC50 of 0.09 µM. `CN1CCN(CCCCOc2ccc(C(=O)N3CCC(N4C(=O)CCc5ccccc54)CC3)cc2)CC1` [Example 158, 1-{1-[4-[4-(4-Methyl-1-piperazinyl)butoxy]benzoyl]-4-piperidinyl}-3,4-dihydrocarbostyril.dioxalate]: the IC50 is 0.1 µM. Same read-out and setting: the figure for `CS(=O)(=O)N1CCN(CCCCOc2ccc(C(=O)N3CCC(N4C(=O)CCc5ccccc54)CC3)cc2)CC1` [Example 159, 1-{1-[4-[4-(4-Methylsulfonyl-1-piperazinyl)butoxy]benzoyl]-4-piperidinyl}-3,4-dihydrocarbostyril] is 0.098 µM; for `COC(=O)N1CCN(CCCCOc2ccc(C(=O)N3CCC(N4C(=O)CCc5ccccc54)CC3)cc2)CC1` [Example 160, 1-{1-[4-[4-(4-Methoxycarbonyl-1-piperazinyl)butoxy]benzoyl]-4-piperidinyl}-3,4-dihydrocarbostyril] it is 0.22 µM.

Compound `O=C(OCCCCOc1ccc(C(=O)N2CCC(N3C(=O)CCc4ccccc43)CC2)cc1)N1CCN(Cc2ccccc2)CC1` [Example 161, 1-{1-[4-[4-(4-Benzyl-1-piperazinyl)carbonyloxybutoxy]benzoyl]-4-piperidinyl}-3,4-dihydrocarbostyril] showed a half-inhibitory concentration (IC50) of 0.45 µM.

Compound `CC(=O)N1CCN(CCCCOc2ccc(C(=O)N3CCC(N4C(=O)CCc5ccccc54)CC3)cc2)CC1` [Example 162, 1-{1-[4-[4-(4-Acetyl-1-piperazinyl)butoxy]benzoyl]-4-piperidinyl}-3,4-dihydrocarbostyril] gave an IC50 of 0.11 µM. On the same count and under the same terms, the figure for `O=C(OCCCCOc1ccc(C(=O)N2CCC(N3C(=O)CCc4ccccc43)CC2)cc1)N1CCNCC1` [Example 163, 1-{1-[4-[4-(1-Piperazinyl)carbonyloxybutoxy]benzoyl]-4-piperidinyl}-3,4-dihydrocarbostyril] is 0.075 µM; for `COC(=O)[C@H](CCCCNC(=O)OCc1ccccc1)NC(=O)CCCCCOc1ccc(C(=O)N2CCC(N3C(=O)CCc4ccccc43)CC2)cc1` [Example 165, 1-{1-[4-{5-[(5-Benzyloxycarbonylamino)-1-(S)-methoxycarbonyl]pentylaminocarbonylpentyloxy}benzoyl]-4-piperidinyl}-3,4-dihydrocarbostyril] it is 0.54 µM.

(Values after patent US5436254A, “Carbostyril derivatives” (Otsuka Pharmaceutical Company, Ltd., priority 1989, dated 1995).)
